Data: patent US5795899A, “Soluble salts of 4-amino-2-(4,4-dimethylimidazolidin-2-on-1-yl) pyrimidine-5-carboxylic acid N-methyl-N-(3-trifluoromethylphenyl)-amide, a process for the preparation thereof, the use thereof as pharmaceuticals and starting materials” (Hoechst Aktiengesellschaft, priority 1992, dated 1998)

How the values were obtained:
LDL receptor = assay: Uptake of 125I-labeled homologous LDL / functional LDL receptor levels on HepG2 cells; type: cell-based, human; settings: FIG. 3
Procedure: In this test, homologous LDL which had been purified by standard processes was labeled with ^125 I by the iodine monochloride method. Used in this case was the method of Bilheimer which is disclosed in the literature and is a modification of the iodination technique originally developed by McFarlaine (compare Bilheimer, D. W., Eisenberg, S., and Levy, R. L., Biochim. Biophys. Acta, 260, 212 (1972)).
To determine the ^125 I-LDL incorporation, HepG2 cells were preincubated with and without hydrochloride of the compound I for 36 hours and subsequently incubated with iodine-labeled LDL at 37° C. in an incubator for 3 hours.
Subsequently, the cells were washed in the presence of 2% bovine serum albumin, the cells were lyzed with 1 ml of 0.1N NaOH, and the incorporated radioactivity was measured. The specific radioactivity uptake (total radioactivity uptake less the unspecific radioactivity uptake) per mg of protein was then calculated, as generally customary, via a protein determination by the Lowry method, and the radioactivity taken up by the control […] was set equal to 100%.

[1] = tested on: carbohydrate-induced hypertriglyceridemia; assay: Inhibition of carbohydrate-induced hypertriglyceridemia; type: in vivo, male Sprague-Dawley rats; settings: 1 mg/kg/day
Procedure: Groups of in each case 10 male Sprague-Dawley rats (supplied by the breeder Mollegard with a weight of 250-280 g) received on each of 4 consecutive days one administration of the compound dissolved in PEG 400 by gavage. In addition, after the 3rd administration and 8 and 24 hours later they received 2.5 g of fructose/kg, likewise by gavage. Moreover, after the 3rd administration of product, 50% strength fructose solution was offered to them as drinking water ad libitum, and the food was withdrawn. Retroorbital removal of blood, from which the serum was obtained for the triglyceride determination and VLDL preparation in the ultracentrifuge (flotation at d=1.006), took place 3 hours after the last product/fructose administration. The food received by the animals from 1 week before the 1st administration and up to the 3rd administration was a diet with 40% casein in the feed meal.
The animals develop, as a result of this treatment, a hypertriglyceridemia which approximately corresponds to Fredrickson phenotype IV in humans. The serum triglycerides of the normal animals increased from 0.54 to 1.1 mmol/l, and the VLDL triglycerides from 0.67 to 1.81.

CN(C(=O)c1cnc(N2CC(C)(C)NC2=O)nc1N)c1cccc(C(F)(F)F)c1.Cl [Compound I as hydrochloride, 4-amino-2-(4,4-dimethyl-2-oxo-1-imidazolidinyl)pyrimidine-5-carboxylic acid N-methyl-N-(3-trifluoromethylphenyl)amide hydrochloride]
Functional LDL receptor levels on HepG2 cells (LDL receptor): corresponding increase | Increase in uptake of 125I-labeled homologous LDL (LDL receptor; HepG2, preincubation 36 hours, then 125I-LDL at 37° C. 3 hours): increased by up to two and a half times | Inhibition of the increase in the VLDL triglycerides (in words) [1]: almost one half | Solubility in water (in words): good solubility | 1 part by mass dissolves in . . . parts of H2 O (Table 2, Temp. [°C]: hydrochloride 25.0, nitrate 23.5, p-toluenesulfonate 23.2, hydrogen (R,R)-tartrate 24.6, free base 24.8): 1.33 parts of H2 O
